Laboratory results: publication PMC5104769, “Concentration-Dependent Dual Mode of Zn Action at Serotonin 5-HT1A Receptors: In Vitro and In Vivo Studies” (Molecular neurobiology, 2015)

Tests used:
[1] = biological target: T1, human 5-HT1AR stably expressed in HEK293 cells (Homo sapiens, UniProt P08908); test: Association and dissociation kinetic assays of [3H]-8-OH-DPAT; format: binding
T1 construct: The full-length human 5HTR1A complementary DNA (cDNA); membranes prepared from the cells
T1 sequence (P08908 1-422): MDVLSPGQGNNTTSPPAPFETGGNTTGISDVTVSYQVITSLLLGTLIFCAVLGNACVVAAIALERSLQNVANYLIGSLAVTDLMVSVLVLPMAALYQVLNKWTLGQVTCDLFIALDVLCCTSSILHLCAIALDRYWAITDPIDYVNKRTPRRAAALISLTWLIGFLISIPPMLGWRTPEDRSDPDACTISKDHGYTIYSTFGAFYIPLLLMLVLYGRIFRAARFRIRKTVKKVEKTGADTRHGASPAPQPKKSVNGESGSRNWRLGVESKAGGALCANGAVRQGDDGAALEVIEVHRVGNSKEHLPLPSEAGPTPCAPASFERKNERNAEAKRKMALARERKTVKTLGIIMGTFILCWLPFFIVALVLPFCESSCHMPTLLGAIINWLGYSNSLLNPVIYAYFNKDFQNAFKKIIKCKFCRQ
Protocol: Non-specific binding was defined by the addition of 10 μM serotonin. The amount of radioligand bound to the receptor was measured at different time intervals during a total incubation of 60 min in the absence or presence of 10 and 500 μM ZnCl2. For the dissociation assay, after incubating the membranes with radioligand for 60 min to achieve equilibrium, serotonin (10 μM), either alone or together with 10 or 500 μM of ZnCl2, was added, and the specifically bound radioligand was measured after incubations of different durations (from 0 to 60 min), which were terminated by rapid filtration.

Body temperature in mice = format: in vivo, mouse; details: Zn 2 and 5 mg/kg i.p., 30 and 60 min after administration
Protocol: The experiments were performed on male Albino Swiss mice (23-25 g) and Sprague Dawley rats (200-250 g) from Charles River, Germany as well as […]-flx-YFP mice from Jackson Labs, Bangor ME and the Hen lab, respectively. The animals were kept under standard laboratory conditions with respect to lighting (light phase 7:00-19:00) and temperature (19-21 °C). Food and water were freely available. Each experimental group consisted of eight to ten animals. All of the animals were experimentally naive and were used only once in each test. The experiments were performed during the light period (9:00-14:00 h). All of the procedures were conducted according to the guidelines of the National Institutes of Health Animal Care and Use Committee and were approved by the Ethics Committees of the Institute of Pharmacology, Polish Academy of Sciences in Krakow and the Animal Care Committee, University of Ottawa. […] Controls were treated with the appropriate diluent, which was indicated as VEH on the graphs and in the tables. […] The results were expressed as a change in body temperature with respect to the basal body temperature, which was measured at the beginning of the experiments.

effect on association rate of [3H]-8-OH-DPAT ([1]; 10 μM of Zn ions): small increase in the association rate
effect on association rate of [3H]-8-OH-DPAT ([1]; 500 μM Zn): no effect on the kon values
effect on dissociation rate of [3H]-8-OH-DPAT ([1]; high Zn concentration (500 μM)): both phases were significantly reduced
Structure (SMILES): [Zn+2] [Zn, Zinc]
effect on dissociation rate of [3H]-8-OH-DPAT ([1]; low Zn concentration (10 μM)): disappearance of the fast radioligand dissociation rate
change in body temperature (Body temperature in mice): significantly and dose-dependently decreased body temperature
